Assays:
[1] = system: high fat diet induced hyperlipidemia/NAFLD hamster model; test: Study B: hyperlipidemia/NAFLD hamster model, BUDCA versus UDCA or BBR-Cl, 6 weeks treatment; format: in vivo, golden hamster; conditions: for Serum lipids HDL-c / Serum lipids LDL-c / Serum lipids TC / Serum lipids TG: 6 weeks daily oral, equimolar high doses: 200 mg/kg BUDCA; for Serum lipids HDL-c / Serum lipids LDL-c / Serum lipids TC / Serum lipids TG / Liver TC / Liver TG / Proportion of oil red O staining positive area / Steatosis Score of HE staining: 107.8 mg/kg UDCA, 102.2 mg/kg BBR-Cl, mean ± SEM; for Liver TC / Liver TG / Proportion of oil red O staining positive area / Steatosis Score of HE staining: 200 mg/kg BUDCA
Protocol: Study B was conducted using the same hamster model as described in Study A to evaluate the efficacy of BUDCA as well as to compare the effects of BUDCA with equivalent doses of either UDCA or BBR-Cl on their own. The model was induced with the same method as indicated in Study A. After the 2-week induction period, hamsters were randomized into treatment groups and continued the high fat diet for an additional 6-week period, concurrent with the daily oral administration of various doses of BUDCA (Low dose: […]; Medium dose: 100 mg/mL; […]), BBR-Cl on its own (Low dose: 51.1 mg/mL; […]), UDCA on its own (Low dose: 53.9 mg/mL; […]), or a 1:1 physical mixture of BBR-Cl and UDCA equivalent to a lower dose of BUDCA (105.0 mg/mL). A model control group continued the high fat diet and normal control group fed the standard diet were both administered the vehicle 0.5% carboxymethyl cellulose sodium (CMC-Na) solution. All animals were sacrificed for terminal evaluations at the end of the 6-week dosing period.
Endpoints evaluated included serum lipids (TC, TG, LDL-C, HDL-C), liver lipid content (TC and TG), liver injury (ALT, AST, total bile acids (TBA) and total bilirubin (TBIL)), liver weight (expressed relative to body weight as liver index), macroscopic observation and histopathology evaluation of the livers. Histopathology endpoints included pathologist observation, as well as numerical comparison via the nonalcoholic fatty liver disease activity score (NAS) and a fibrosis severity score.
Terminal endpoints in model control animals also confirmed increased liver weight and histopathology of the liver as evidenced by steatosis, hepatocytes swelling, punctate necrosis, inflammatory cell infiltration and local fibrosis. Therefore, the model was not only able to replicate key characteristics of the NAFLD disease spectrum in humans, but also hyperlipidemia.

[2] = system: adults with NASH and T2DM; test: Study D: randomized, double-blind, placebo-controlled Phase 2 study in adults with NASH and T2DM, 18 weeks; format: in vivo, human
Protocol: Study D was a randomized, double-blind, placebo-controlled Phase 2 study in adults with NASH and T2DM. The primary objective of this study was to evaluate the change from baseline in liver fat content as assessed by MRI-PDFF, but also evaluated changes in key cardiometabolic parameters, including lipids. Key entry criteria included the clinical diagnosis of NASH and T2DM and BMI >25.0 kg/m2. Subjects were randomized and treated with placebo (N=33), BUDCA 500 mg BID (N=33), or BUDCA 1000 mg BID (N=34) for 18 weeks (Harrison 2021).
Demographic characteristics were generally well balanced among treatment groups. The median age overall was 57 years (range: 26 to 75 years), and there were 72% females and 28% males. Most subjects were White (91%) and not Hispanic or Latino (62%). Mean baseline weight and BMI were similar across treatment groups. On average, LDL-C was elevated and near the upper limit of the normal range and TGs were elevated above the normal. Baseline values for HbA1c, ALT, GGT, liver fat content, and cT1 were similar across treatment groups.
Study D evaluated the effects of BUDCA on lipids as secondary efficacy endpoints. On average, subjects had near-normal LDL-C at baseline with borderline-high levels of TG. While the average values were generally similar across treatment groups, it should be noted that LDL-C was lower in the BUDCA 500 mg BID treatment group while TGs were lower in the BUDCA 1000 mg BID treatment group (Table 6). […] Reductions in TGs with the […] dose were statistically significant compared with placebo. Reduced TG levels were paralleled with a reduction in LDL-C after 18 weeks of treatment with BUDCA 1000 mg BID (−13%), but not with BUDCA 500 mg BID (3%) or with placebo (0%).

subjects with HTG = test: Pooled analysis of Study C and Study D in subjects with HTG (baseline TGs above 200 mg/dL); format: in vivo, human; conditions: for placebo-corrected median percent change from baseline in TGs: end of treatment
Protocol: Efficacy was also tested in two clinical studies that established merits for further clinical study in patients with SHTG: Study C was conducted in adults with hypercholesterolemia and […] and T2DM. A pooled analysis was conducted based on these two studies specifically evaluating the data from subjects who had HTG at baseline (TG 200 mg/dL).
To further investigate the potential of BUDCA for lowering TGs in patients with elevated TGs, a pooled analysis across studies Study C and Study D was conducted focusing on the subjects with baseline TGs above 200 mg/dL (HTG) (Table 6). The analysis pooled the baseline and end of treatment timepoints for this evaluation as the two studies had different durations (4 weeks vs 18 weeks).

[3] = system: high fat diet induced hyperlipidemia/NAFLD hamster model; test: Study A: high-fat/high-cholesterol diet induced hyperlipidemia/NAFLD hamster model, 7 weeks treatment; format: in vivo, Male Golden Syrian hamsters; conditions: for HDL-c (serum) / LDL-c (serum) / PCSK9 (serum) / TC (serum) / TG (serum) / AI value (atherosclerosis index): mean ± SEM; for AI value (atherosclerosis index): AI = (TC − HDL-c)/HDL-c
Protocol: Various pre-clinical and clinical studies were performed to evaluate safety and efficacy of BUDCA. Primary and secondary pharmacodynamics studies were performed. Specific to nonclinical proof of concept for BUDCA in SHTG, the efficacy of BUDCA on hyperlipidemia/NAFLD was evaluated in two studies (Study A and Study B) using a high fat diet induced hyperlipidemia/NAFLD hamster model. Dietary induced changes in hamsters can be considered a valid model for dyslipidemia.
Male Golden Syrian hamsters were fed with a high-fat/high-cholesterol diet which contained 1.25% cholesterol, 20.06% grease (2.79% soybean oil, 17.27% cocoa butter) to establish the hyperlipidemia/NAFLD model. After 2 weeks of high-fat/high-cholesterol diet inducement, 24 hamsters with fasting TC level 17.96±1.70 mmol/L were selected and divided into 3 groups of 8 hamsters each (model group G1, 50 mg/kg/day BUDCA group G2, and 200 mg/kg/day BUDCA group G3). Eight hamsters comprising the normal control were fed with a normal chow diet.
The normal and Model control groups received vehicle (10 mL/kg 0.5% gum tragacanth solution), while the two BUDCA treatment groups received BUDCA, via intragastric administration for 7 weeks prior to sacrifice.
During the treatment period, blood was collected at weeks 1, 3, 5, and 7, for biochemical analysis including serum TC, TG, HDL-c, LDL-c, and liver enzymes. At the end of the study, animals were sacrificed for liver macroscopic observation and liver tissues were collected for histopathological evaluations and liver lipid contents.

[4] = system: overweight or obese adults with hypercholesterolemia; test: Study C: Phase 1b/2a study in overweight or obese adults with hypercholesterolemia, 28 days; format: in vivo, human; conditions: BUDCA 250, 500 or 1000 mg BID, maximum reductions relative to placebo after 14 days
Protocol: In a Phase 1b/2a study, 50 overweight or obese adults with hypercholesterolemia were enrolled and treated with BUDCA for 28 days. The primary objective was to evaluate safety and tolerability of BUDCA. Given that the subjects enrolled in this study were obese with a history of hypercholesteremia, the focus of the efficacy and PD endpoints was lipid metabolism. Key entry criteria included BMI 2 and LDL-C, BUDCA 250 mg BID (N=12), BUDCA 500 mg BID (N=12), or BUDCA 1000 mg BID (N=12).
While all subjects had hypercholesteremia at baseline, TG levels generally ranged from normal to mild HTG (three subjects from each of placebo, BUDCA 500 mg BID, and BUDCA 1000 mg BID had TG values >200 mg/dL) and HDL-C levels were generally in the normal range.

[5] = both doses of BUDCA, HTG subgroup
[6] = 50 mg/kg/day BUDCA intragastric, 7 weeks
[7] = 200 mg/kg/day BUDCA intragastric, 7 weeks

COc1ccc2cc3[n+](cc2c1OC)CCc1cc2c(cc1-3)OCO2.[Cl-] [BBR-Cl]
Serum lipids HDL-c [1]: 5.24 ± 0.30 mmol/L | Serum lipids LDL-c [1]: 6.53 ± 1.10 mmol/L | Serum lipids TC [1]: 14.86 ± 1.23 mmol/L | Serum lipids TG [1]: 3.72 ± 0.37 mmol/L | Liver TC ([1]; 6 weeks): 29.27 ± 4.47 mg/g | Liver TG ([1]; 6 weeks): 19.18 ± 2.24 mg/g | Proportion of oil red O staining positive area ([1]; 6 weeks): 18.97 ± 2.43 % | Steatosis Score of HE staining ([1]; 6 weeks): 2.75 ± 0.16

COc1ccc2cc3[n+](cc2c1OC)CCc1cc2c(cc1-3)OCO2.C[C@H](CCC(=O)[O-])[C@H]1CC[C@H]2[C@@H]3[C@@H](O)C[C@@H]4C[C@H](O)CC[C@]4(C)[C@H]3CC[C@]12C [BUDCA, Berberine Ursodeoxycholate]
Serum lipids HDL-c [1]: 4.25 ± 0.40 mmol/L | Serum lipids LDL-c [1]: 1.26 ± 0.15 mmol/L | Serum lipids TC [1]: 7.03 ± 0.73 mmol/L | Serum lipids TG [1]: 2.06 ± 0.39 mmol/L | Liver TC ([1]; 6 weeks): 4.59 ± 0.84 mg/g | Liver TG ([1]; 6 weeks): 3.92 ± 0.50 mg/g | Proportion of oil red O staining positive area ([1]; 6 weeks): 1.18 ± 0.69 % | Steatosis Score of HE staining ([1]; 6 weeks): 1.00 ± 0.38 | serum TC and TG, LDL-C, ALT, AST, TBA, TBIL, liver weight, liver TC and TG, NAS score, and fibrosis (score and % area) ([1]; relative to model control animals, low, medium and high dose BUDCA, 6 weeks): reduced all the following parameters in a dose dependent manner | beneficial effects on most parameters, including serum lipids and liver lipid deposition, compared with the individual moieties ([1]; versus equivalent doses of UDCA or BBR administered alone): greater than those achieved with either UDCA or BBR when administered alone | HbA1c change from baseline ([2]; 18 weeks of BUDCA treatment (500 and 1000 mg BID), in contrast to increase with placebo): Significant dose dependent reductions | LDL-C, change from baseline to week 18 ([2]; BUDCA 500 mg BID, 18 weeks): 3% | TG levels, change from baseline to week 18 ([2]; BUDCA 500 mg BID, 18 weeks): −9% | mean change in fasting plasma glucose ([2]; BUDCA 500 mg BID, 18 weeks): -18 mg/dL | LDL-C, change from baseline to week 18 ([2]; BUDCA 1000 mg BID, 18 weeks): −13% | TG levels, change from baseline to week 18 ([2]; BUDCA 1000 mg BID, 18 weeks): −11% | mean change in fasting plasma glucose ([2]; BUDCA 1000 mg BID, 18 weeks): -22 mg/dL | change from baseline in body weight ([2]; BUDCA 1000 mg BID, 18 weeks, p<0.05 vs placebo): -3.5 kg | placebo-corrected median percent change from baseline in TGs (subjects with HTG; BUDCA 500 mg BID, 95% CI (−52.63, 17.93)): −12.3% | HDL-C at the end of treatment (subjects with HTG; BUDCA 1000 mg BID, HTG population): increase in HDL-C | placebo-corrected median percent change from baseline in TGs (subjects with HTG; BUDCA 1000 mg BID, 95% CI (−55.57, 16.61)): −17.7% | change from baseline to end of treatment in body weight (subjects with HTG; BUDCA 1000 mg BID, subjects with HTG, based solely on one of the two studies): -4.6 kg | LDL-C at the end of treatment (subjects with HTG; both doses of BUDCA (500 and 1000 mg BID), HTG population): decrease in LDL-C | HbA1c (subjects with HTG; [5]): no worsening of HbA1c | fasting plasma glucose (subjects with HTG; [5]): decrease in fasting plasma glucose | HDL-c (serum) [3, 6]: 3.42 ± 0.28 mmol/L | LDL-c (serum) [3, 6]: 2.95 ± 1.72 mmol/L | PCSK9 (serum) [3, 6]: 124.9 ± 16.8 pg/mL | TC (serum) [3, 6]: 9.78 ± 2.58 mmol/L | TG (serum) [3, 6]: 3.88 ± 1.21 mmol/L | Liver TC ([3]; 50 mg/kg/day BUDCA, 7 weeks): 14.62 ± 4.89 mg/g | Liver TG ([3]; 50 mg/kg/day BUDCA, 7 weeks): 5.40 ± 2.64 mg/g | AI value (atherosclerosis index) ([3]; 50 mg/kg/day BUDCA, 7 weeks): 1.88 ± 0.83 | HDL-c (serum) [3, 7]: 2.53 ± 0.29 mmol/L | LDL-c (serum) [3, 7]: 1.23 ± 0.28 mmol/L | PCSK9 (serum) [3, 7]: 179.0 ± 30.9 pg/mL | TC (serum) [3, 7]: 4.95 ± 0.84 mmol/L | TG (serum) [3, 7]: 1.90 ± 0.66 mmol/L | Liver TC ([3]; 200 mg/kg/day BUDCA, 7 weeks): 3.82 ± 1.78 mg/g | Liver TG ([3]; 200 mg/kg/day BUDCA, 7 weeks): 5.61 ± 1.98 mg/g | AI value (atherosclerosis index) ([3]; 200 mg/kg/day BUDCA, 7 weeks): 0.95 ± 0.19 | serum PCSK9 levels compared to the Model control group ([3]; 7-weeks of BUDCA treatment, P<0.05): significantly reduced | serum TG, TC, LDL-c levels, and AI compared to the model group ([3]; BUDCA 50 and 200 mg/kg/day, 7 weeks, P<0.01, dose-dependent): significantly reduced | liver contents of TG and TC compared to the model group ([3]; both doses of BUDCA, 7 weeks, P<0.01): significantly decreased | serum lipid levels [4]: decreased in a dose-dependent fashion

C[C@H](CCC(=O)O)[C@H]1CC[C@H]2[C@@H]3[C@@H](O)C[C@@H]4C[C@H](O)CC[C@]4(C)[C@H]3CC[C@]12C [UDCA]
Serum lipids HDL-c [1]: 4.81 ± 0.15 mmol/L | Serum lipids LDL-c [1]: 3.83 ± 0.47 mmol/L | Serum lipids TC [1]: 10.13 ± 0.73 mmol/L | Serum lipids TG [1]: 2.17 ± 0.18 mmol/L | Liver TC ([1]; 6 weeks): 17.95 ± 4.04 mg/g | Liver TG ([1]; 6 weeks): 11.24 ± 2.69 mg/g | Proportion of oil red O staining positive area ([1]; 6 weeks): 11.72 ± 4.65 % | Steatosis Score of HE staining ([1]; 6 weeks): 2.13 ± 0.35
